The text below walks through data of PMC12631912, “A Multifunctional Molecular Probe for Multimodal Imaging‐Guided Potent Photothermal/Photodynamic Therapy of Endometriosis” (Advanced Science, 2025).

The conditions of data set [1]: free ICG; cited from earlier work.
Data set [2] is described as follows: UV absorption and fluorescence emission spectra. It counts as physicochemical. As to conditions: in PBS, cRGD-ILD C ICG = 10 µg mL^−1, ICG 5 µg/mL. As to the method: The ^1H NMR spectra were conducted utilizing a Varian Unity 400 MHz Spectrometer ([…]) in a variety of deuterated solvents. ESI‐MS were obtained with a Thermo Scientific LTQ XL mass spectrometer (Thermo, USA). UV absorption spectra were measured by a Unico UV‐2000 UV–vis Spectrophotometer (Shanghai, China). Photoluminescence excitation and emission spectra were recorded using an FSP920‐combined Time Resolved and Steady State Fluorescence Spectrometer (Edinburgh, UK), equipped with a 450‐W xenon lamp. Both the UV and fluorescence spectrophotometers were scanned within the wavelength range of 650–850 nm.

Details of data set [3]: method as in earlier work. As to conditions: clinically approved contrast agent; cited from earlier work.

As to `CC1(C)C(/C=C/C=C/C=C/C=C2\N(CCCCS(=O)(=O)O)c3ccc4ccccc4c3C2(C)C)=[N+](CCCCS(=O)(=O)[O-])c2ccc3ccccc3c21` [ICG, indocyanine green, reference compound], the “Photothermal conversion efficiency (PCE)” value in data set [1] is listed as 15.8%. For the same compound, the fluorescence emission peak in data set [2] (λex = 755 nm) worked out at 764 nm. This compound also registered an absorption peak in data set [2] of 755 nm.

As for `CNC[C@H](O)[C@@H](O)[C@H](O)[C@H](O)CO.CNC[C@H](O)[C@@H](O)[C@H](O)[C@H](O)CO.O=C([O-])CN(CCN(CC(=O)[O-])CC(=O)O)CCN(CC(=O)[O-])CC(=O)O.[Gd+3]` [Magnevist], the “T 1 relaxivities (r 1)” value in data set [3] is 5.35 mM⁻¹ s⁻¹.
